In PubChem BioAssay (NCI):
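Dose response: 5 concentrations. Exposure: 48 h. Format: 96-well plates. Endpoint: linear interpolation; highest concentration if not reached. Abbreviation: GI50, concentration required for 50% inhibition of growth. TGI: concentration producing complete growth inhibition.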

Experiments:
Experiment in all cases: NCI tumour cell line growth inhibition, 48 h
[1] = system: SK-OV-3 ovarian
[2] = system: MDA-MB-231 breast
[3] = system: OVCAR-5 ovarian
[4] = system: NCI-H23 lung
[5] = system: MDA-MB-435
[6] = system: T-47D breast
[7] = system: SK-MEL-28 melanoma
[8] = system: HCC-2998 colon
[9] = system: CCRF-CEM leukemia
[10] = system: OVCAR-8 ovarian
[11] = system: SNB-75 CNS
[12] = system: OVCAR-4 ovarian
[13] = system: SNB-19 CNS
[14] = system: HOP-62 NSCLC
[15] = system: MCF7 breast
[16] = system: SF-539 CNS
[17] = system: COLO 205 colon
[18] = system: NCI-H460 lung
[19] = system: HCT-15 colon
[20] = system: CAKI-1 renal
[21] = system: A549 NSCLC
[22] = system: A498 renal
[23] = system: SK-MEL-5 melanoma
[24] = system: SN12C renal
[25] = system: HCT-116 colon
[26] = system: HS 578T breast
[27] = system: OVCAR-3 ovarian
[28] = system: U251 CNS
[29] = system: UACC-62 melanoma

Compound: CCOC(=O)c1ccc(N(C=O)CCC(=O)CCl)cc1
- TGI [1]: 13.2 µM
- GI50 [2]: 0.275 µM
- TGI [2]: 1.16 µM
- GI50 [3]: 0.474 µM
- TGI [3]: 9.23 µM
- GI50 [4]: 0.483 µM
- TGI [4]: 7.81 µM
- GI50 [5]: 0.0908 µM
- TGI [5]: 0.37 µM
- GI50 [6]: 1.16 µM
- TGI [6]: 3.45 µM
- GI50 [7]: 1.74 µM
- TGI [7]: 15.2 µM
- GI50 [8]: 0.372 µM
- TGI [8]: 1.54 µM
- GI50 [9]: 0.037 µM
- TGI [9]: 1.6 µM
- GI50 [10]: 0.0998 µM
- TGI [10]: 11.3 µM
- GI50 [11]: 0.997 µM
- TGI [11]: 13.6 µM
- GI50 [12]: 0.079 µM
- TGI [12]: 3.61 µM
- GI50 [13]: 2.37 µM
- TGI [13]: 22.4 µM
- GI50 [14]: 0.485 µM
- TGI [14]: 13.4 µM
- GI50 [15]: 0.0532 µM
- GI50 [16]: 0.249 µM
- TGI [16]: 0.778 µM
- GI50 [17]: 0.315 µM
- TGI [17]: 0.838 µM
- GI50 [18]: 0.355 µM
- TGI [18]: 11.1 µM
- GI50 [19]: 0.0487 µM
- TGI [19]: 2.58 µM
- GI50 [20]: 0.528 µM
- TGI [20]: 2.05 µM
- GI50 [21]: 1.37 µM
- TGI [21]: 12.7 µM
- GI50 [22]: 1.47 µM
- TGI [22]: 5.87 µM
- GI50 [23]: 0.344 µM
- TGI [23]: 1.55 µM
- GI50 [24]: 0.217 µM
- TGI [24]: 4.27 µM
- GI50 [25]: 0.0342 µM
- TGI [25]: 1.73 µM
- GI50 [26]: 0.311 µM
- TGI [26]: 2.89 µM
- GI50 [27]: 0.399 µM
- TGI [27]: 1.35 µM
- GI50 [28]: 0.342 µM
- TGI [28]: 10.8 µM
- GI50 [29]: 0.524 µM
- TGI [29]: 3.69 µM
